Measurements reported in patent US20180238886A1, “METHODS FOR TREATING HEMATOLOGICAL CANCER AND THE USE OF BIOMARKERS AS A PREDICTOR FOR RESPONSIVENESS TO TREATMENT COMPOUNDS” (CELGENE CORPORATION, priority 2017, published 2018).

Test system: DLBCL patients
Assay: Clinical evaluation of gene classifiers in the Compound A cohort (progression free survival, objective response)
Assay type: in vivo, human
Parameters: Median Surv BM+ / Median Surv BM−: unit not given here
Settings: for Predictive Effects Cox HR: BM+ vs BM-; for Predictive Effects Cox HR / Median Surv BM− / Median Surv BM+: progression free survival, Cmp A-ST (N = 57); for Median Surv BM−: biomarker-negative patients; for Median Surv BM+: biomarker-positive patients; for CR BM+ / CR BM−: number of complete responses; for OR BM+ / OR BM−: number of objective responses
Excerpt: A proof of principle study was designed to translate the biomarker content and model to a clinically viable platform. The study consisted of four major steps: 1) development of a simplified linear model of the primary signal, 2) placing the model in the scale of a clinically viable technology (such as but not limited to, Nanostring nCounter or qRT-PCR), 3) establishing a threshold to replicate the output of the research assay, and 4) evaluating the simplified model and threshold in the Compound A cohort. The final model was applied to the Lenz microarray cohort and the Compound A Non-transformed cohort assayed by Nanostring nCounter. The classification of each sample was then combined with clinical data, and associations with clinical variables such as objective response and progression free survival were calculated. Results are shown as Kaplan-Meier plots in FIGS. 4A-4D. […] FIGS. 4A and 4C show the original 26 gene research classifier, and FIGS. 4B and 4D show the linear model that resulted from this bridging study. […] Importantly, the shapes of the curves for each group are very similar between the original 26 gene classifier and the bridged linear model. Additional results including biomarker prevalence, summary statistics from Cox Proportional Hazards models, objective response, and model details are listed in Table 6.

[1] = CG26 classifier, BM+ (25 patients)
[2] = CG26 classifier, BM− (32 patients)
[3] = M1 classifier, BM+ (22 patients)
[4] = M1 classifier, BM− (35 patients)

Cc1nc2cccc(N)c2c(=O)n1C1CCC(=O)NC1=O (centres unmarked) [Compound A, 3-(5-amino-2-methyl-4-oxo-4H-quinazolin-3-yl)-piperidine-2,6-dione]
Predictive Effects Cox HR (CG26 classifier): 0.31
Median Surv BM− (CG26 classifier): 6.7
Median Surv BM+ (CG26 classifier): 35.9
Predictive Effects Cox HR (M1 classifier): 0.32
Median Surv BM− (M1 classifier): 6.9
Median Surv BM+ (M1 classifier): 37.9
CR BM+ [1]: 4
CR BM− [2]: 2
CR BM+ [3]: 4
CR BM− [4]: 2
OR BM+ [1]: 12
OR BM− [2]: 5
OR BM+ [3]: 10
OR BM− [4]: 7
